Data published in patent publication US20160332971A1, “ARYLQUINOLINE, ARYLQUINOLONE AND ARYLTHIOQUINOLONE DERIVATIVES AND USE THEREOF TO TREAT CANCER” (UNIVERSITY OF KENTUCKY RESEARCH FOUNDATION, priority 2015, published 2016).
Read-outs that look alike come from different tables or passages of the source.

How the values were obtained:
[1] = test system: Par-4 secretion from mouse fibroblasts; assay: Par-4 secretion into conditioned medium, quantitative Western blot normalised to CollA1; format: cell-based; conditions: for Relative Levels of Par-4 Secretion by Arylquins Administered at 500 nM / fold induction at 0.5 µM: 24 h; for Relative Levels of Par-4 Secretion by Arylquins Administered at 500 nM: mouse fibroblasts, CM; for Par-4 secretory activity (in words): SAR discussion; for fold induction at 0.5 µM: Mus musculus, Fibroblast, read-out: Ratio of Par-4 Secretion by Arylquin 1 Relative to Vehicle
Description: Calibration curve developed using fixed amounts (0.05-5 ng) of recombinant TRX-Par-4. […] Therefore the concentration was 0.82 ng/40 μL or 540 pM, In the same fashion, calculation for Par-4 concentration using vehicle (v) was 280 pM.
Biological activity of 3-Arylquinolines. […] After 24 h exposure, the CM and lysates were subjected to quantitative Western blot analysis for Par-4 and collagen (CollA1).
Co-immunoprecipitation and Western blot analysis. Protein extracted from cell lysates was filtered, pre-cleared with 25 μL (bed volume) of protein G-Sepharose beads and immunoprecipitated with 1 μg of respective antibodies. The eluted proteins were resolved by SDS-PAGE, and subjected to Western blot analysis as described previously. Bensch, et al. Nature 1968, 218(5147):1176-1177.
Statistical analyses. All experiments were performed in triplicate to verify the reproducibility of the findings. […] Statistical analyses were carried out with Statistical Analysis System software (SAS Institute, Cary, N.C.) and P values were calculated using the Student t test.

## 3-(2,3-Difluorophenyl)-N^7,N^7-dimethylquinoline-2,7-diamine [Arylquin 1i]
[1]; Table 1
  Relative Levels of Par-4 Secretion by Arylquins Administered at 500 nM: 88.4 ± 1.3
[1]; 500 nM
  Par-4 secretory activity (in words): comparable to 1a, 1b and 1h

## 3-(2,5-Difluorophenyl)-N^7,N^7-dimethylquinoline-2,7-diamine [Arylquin 1l]
[1]; Table 1
  Relative Levels of Par-4 Secretion by Arylquins Administered at 500 nM: 64.9 ± 13.1

## CN(C)c1ccc2cc(-c3ccccc3F)c(N)nc2c1 [Arylquin 1a]
[1]; 500 nM, vs vehicle alone
  increase in Par-4 concentrations in the CM from basal levels: two-fold increase
[1]; 500 nM, calibration with recombinant TRX-Par-4 (FIG. 3), vehicle 280 pM
  Par-4 concentration in the CM: 540 pM
[1]; 500 nM
  Par-4 secretory activity (in words): superior in potency

## CN(C)c1ccc2cc(-c3ccccc3Cl)c(N)nc2c1 [Arylquin 1b, 3-(2-Chlorophenyl)-N^7,N^7-dimethylquinoline-2,7-diamine]
[1]; 500 nM
  Par-4 secretory activity (in words): comparable in activity
other
  melting point: 147 to 148 °C

## CN(C)c1ccc2cc(-c3ccccc3Br)c(N)nc2c1 [Arylquin 1c, 3-(2-Bromophenyl)-N^7,N^7-dimethylquinoline-2,7-diamine]
[1]; Table 1
  Relative Levels of Par-4 Secretion by Arylquins Administered at 500 nM: 33.6 ± 14.8
[1]; 500 nM
  Par-4 secretory activity (in words): diminished activity
other
  melting point: 159 to 160 °C

## CN(C)c1ccc2cc(-c3cccc(Cl)c3)c(N)nc2c1 [Arylquin 1e, 3-(3-Chlorophenyl)-N^7,N^7-dimethylquinoline-2,7-diamine]
[1]; Table 1
  Relative Levels of Par-4 Secretion by Arylquins Administered at 500 nM: 78.3 ± 15.3
[1]; 500 nM, Table 1
  fold induction at 0.5 µM: 2.6
[1]; 500 nM
  Par-4 secretory activity (in words): no improvement
other
  melting point: 144 to 145 °C

## CN(C)c1ccc2cc(-c3ccc(Cl)cc3)c(N)nc2c1 [Arylquin 1g, 3-(4-Chlorophenyl)-N^7,N^7-dimethylquinoline-2,7-diamine]
[1]; 500 nM
  Par-4 secretory activity (in words): no improvement
other
  melting point: 169 to 170 °C

## CN(C)c1ccc2cc(-c3cccc(F)c3F)c(N)nc2c1 [Arylquin 1h, 3-(2,3-Difluorophenyl)-N^7,N^7-dimethylquinoline-2,7-diamine]
[1]; Table 1
  Relative Levels of Par-4 Secretion by Arylquins Administered at 500 nM: 93.2 ± 10.6
[1]; 500 nM, Table 1
  fold induction at 0.5 µM: 3.1
[1]; 500 nM
  Par-4 secretory activity (in words): equipotent to the original arylquinoline 1a

## CN(C)c1ccc2cc(-c3ccc(F)cc3F)c(N)nc2c1 [Arylquin 1j, 3-(2,4-Difluorophenyl)-N^7,N^7-dimethylquinoline-2,7-diamine]
[1]; Table 1
  Relative Levels of Par-4 Secretion by Arylquins Administered at 500 nM: 80.8 ± 3.0
[1]; 500 nM, Table 1
  fold induction at 0.5 µM: 2.7
[1]; 500 nM
  Par-4 secretory activity (in words): equipotent to the original arylquinoline 1a
other
  melting point: 174 to 175 °C

## CN(C)c1ccc2cc(-c3cc(F)ccc3F)c(N)nc2c1 [Arylquin 1k, 3-(2,5-Difluorophenyl)-N^7,N^7-dimethylquinoline-2,7-diamine]
[1]; Table 1
  Relative Levels of Par-4 Secretion by Arylquins Administered at 500 nM: 86.2 ± 7.5
[1]; 500 nM, Table 1
  fold induction at 0.5 µM: 2.9
[1]; 500 nM
  Par-4 secretory activity (in words): equipotent to the original arylquinoline 1a

## CN(C)c1ccc2cc(-c3c(F)cccc3F)c(N)nc2c1 [Arylquin 1m, 3-(2,6-Difluorophenyl)-N^7,N^7-dimethylquinoline-2,7-diamine]
[1]; Table 1
  Relative Levels of Par-4 Secretion by Arylquins Administered at 500 nM: 44.6 ± 4.6
[1]; 500 nM, Table 1
  fold induction at 0.5 µM: 1.5
[1]; 500 nM
  Par-4 secretory activity (in words): did not lead to improved activity
other
  melting point: 148 to 150 °C

## CN(C)c1ccc2cc(-c3ccc(F)c(F)c3)c(N)nc2c1 [Arylquin 1n, 3-(3,4-Difluorophenyl)-N^7,N^7-dimethylquinoline-2,7-diamine]
[1]; Table 1
  Relative Levels of Par-4 Secretion by Arylquins Administered at 500 nM: 58.4 ± 14.1
[1]; 500 nM, Table 1
  fold induction at 0.5 µM: 2
[1]; 500 nM
  Par-4 secretory activity (in words): diminished activity relative to 1a
other
  melting point: 163 to 164 °C

## CN(C)c1ccc2cc(-c3cc(F)cc(F)c3)c(N)nc2c1 [Arylquin 1o, 3-(3,5-Difluorophenyl)-N^7,N^7-dimethylquinoline-2,7-diamine]
[1]; Table 1
  Relative Levels of Par-4 Secretion by Arylquins Administered at 500 nM: 47.4 ± 16.8
[1]; 500 nM
  Par-4 secretory activity (in words): diminished activity relative to 1a
other
  melting point: 160 to 162 °C

## CN(C)c1ccc2cc3c(nc(N)c4ccccc43)nc2c1 [Arylquin 6, N^9,N^9-Dimethyldibenzo[b,f][1,8]naphthyridine-5,9-diamine]
[1]; 500 nM
  Par-4 secretory activity (in words): biologically inactive
other
  melting point: > 250 °C

## CN(C)c1ccc2cc3c(nc2c1)[nH]c(=O)c1ccccc13 [Arylquin 7, 9-(Dimethylamino)dibenzo[b,f][1,8]naphthyridin-5(6H)-one]
[1]; 500 nM
  Par-4 secretory activity (in words): biologically inactive
other
  melting point: > 250 °C

## CCOC(=O)c1cn2c(n1)c(-c1ccccc1F)cc1ccc(N(C)C)cc12 [Arylquin 8b]
[1]; 500 nM
  Par-4 secretory activity (in words): little Par-4 secretory activity

## CN(C)c1ccc2cc(-c3ccccc3F)c(=O)[nH]c2c1 [Arylquin 9]
[1]; 500 nM, Table 2
  Ratio of Par-4 Secretion by Arylquin 1 Relative to Vehicle: 1.1
[1]; Table 2
  Relative Levels of Par-4 Secretion by Arylquins Administered at 500 nM: 33.2 ± 0.9
[1]; 500 nM
  Par-4 secretory activity (in words): diminished Par-4 secretory activity relative to arylquinoline 1a

## CSc1nc2cc(N(C)C)ccc2cc1-c1ccccc1F [Arylquin 11, 3-(2-Fluorophenyl)-N,N-dimethyl-2-(methylthio)quinolin-7-amine]
[1]; Table 2
  Relative Levels of Par-4 Secretion by Arylquins Administered at 500 nM: 75.4 ± 7.0
[1]; 500 nM, Table 2
  fold induction at 0.5 µM: 2.5
[1]; 500 nM
  Par-4 secretory activity (in words): diminished activity to varying degrees

## CN(C)c1ccc2cc(-c3ccccc3F)c(Cl)nc2c1 [Arylquin 12, 2-Chloro-3-(2-fluorophenyl)-N,N-dimethylquinolin-7-amine]
[1]; Table 2
  Relative Levels of Par-4 Secretion by Arylquins Administered at 500 nM: 104.5 ± 26.9
[1]; 500 nM, Table 2
  fold induction at 0.5 µM: 3.5
[1]; 500 nM
  Par-4 secretory activity (in words): activity comparable to but not exceeding that of arylquinoline 1a

## CN1CCN(c2nc3cc(N(C)C)ccc3cc2-c2ccccc2F)CC1 [Arylquin 13b, 3-(2-Fluorophenyl)-N,N-dimethyl-2-(4-methylpiperazin-1-yl)quinolin-7-amine]
[1]; Table 2
  Relative Levels of Par-4 Secretion by Arylquins Administered at 500 nM: 65.6 ± 3.6
[1]; 500 nM, Table 2
  fold induction at 0.5 µM: 2.2
[1]; 500 nM
  Par-4 secretory activity (in words): diminished activity to varying degrees

## Nc1nc2cccc(F)c2cc1-c1ccccc1F [Arylquin 15b, 5-Fluoro-3-(2-fluorophenyl)quinolin-2-amine]
[1]; Table 2
  Relative Levels of Par-4 Secretion by Arylquins Administered at 500 nM: 83.4
[1]; 500 nM, Table 2
  fold induction at 0.5 µM: 2.8
[1]; 500 nM
  Par-4 secretory activity (in words): equipotent to 15a
other
  melting point: 142 to 143 °C

## Nc1nc2cccc(Cl)c2cc1-c1ccccc1F [Arylquin 15c, 5-Chloro-3-(2-fluorophenyl)quinolin-2-amine]
[1]; Table 2
  Relative Levels of Par-4 Secretion by Arylquins Administered at 500 nM: 63.2 ± 20.5
[1]; 500 nM, Table 2
  fold induction at 0.5 µM: 2.1
[1]; 500 nM
  Par-4 secretory activity (in words): lower Par-4 secretory activity
other
  melting point: 194 to 196 °C

## Nc1nc2cccc(Br)c2cc1-c1ccccc1F [Arylquin 15d, 5-Bromo-3-(2-fluorophenyl)quinolin-2-amine]
[1]; Table 2
  Relative Levels of Par-4 Secretion by Arylquins Administered at 500 nM: 44.6
[1]; 500 nM, Table 2
  fold induction at 0.5 µM: 1.5
[1]; 500 nM
  Par-4 secretory activity (in words): lower Par-4 secretory activity
other
  melting point: 209 to 210 °C

## Nc1nc2ccc(Cl)cc2cc1-c1ccccc1F [Arylquin 15e, 6-Chloro-3-(2-fluorophenyl)quinolin-2-amine]
[1]; Table 2
  Relative Levels of Par-4 Secretion by Arylquins Administered at 500 nM: 81.9 ± 11.2
[1]; 500 nM, Table 2
  fold induction at 0.5 µM: 2.8
[1]; 500 nM
  Par-4 secretory activity (in words): equipotent to 15a
other
  melting point: 138 to 139 °C

## Nc1nc2cc(Cl)ccc2cc1-c1ccccc1F [Arylquin 15f, 7-Chloro-3-(2-fluorophenyl)quinolin-2-amine]
[1]; Table 2
  Relative Levels of Par-4 Secretion by Arylquins Administered at 500 nM: <50
[1]; 500 nM
  Par-4 secretory activity (in words): reduced activity
other
  melting point: 178 to 180 °C

## COc1ccc2cc(-c3ccccc3F)c(N)nc2c1 [Arylquin 15g, 3-(2-Fluorophenyl)-7-methoxyquinolin-2-amine]
[1]; Table 2
  Relative Levels of Par-4 Secretion by Arylquins Administered at 500 nM: <50
[1]; 500 nM
  Par-4 secretory activity (in words): reduced activity
other
  melting point: 114 to 116 °C

## Nc1nc2cc(C(=O)O)ccc2cc1-c1ccccc1F [Arylquin 15h, 2-Amino-3-(2-fluorophenyl)quinoline-7-carboxylic add]
[1]; Table 2
  Relative Levels of Par-4 Secretion by Arylquins Administered at 500 nM: <50
[1]; 500 nM
  Par-4 secretory activity (in words): reduced activity
